# Assay results reported in patent US11497729B2, “Methods and materials for treating cancer” (Mayo Foundation for Medical Education and Research, priority 2016, dated 2022).
# “Also recorded” adds a separate entry of the source.
# Assays:
# [1] = system: HER2+ breast cancer cells; experiment: Cell survival by MTS assay, Herceptin with or without P005091; format: cell-based; settings: FIG. 4A
# Protocol: (§1) P005091 increased the efficacy of the HER2 inhibitor, trastuzumab, in HER2^+ breast cancer cells, xenografts, and PDX models. HER2^+ breast cancer cells were treated with indicated concentrations of Herceptin with or without 10 μM P005091 for 72 hours. Cell survival was determined by MTS assays. Data was shown as mean values for three independent experiments, and error bars represent standard error of the mean (SEM) (n=3) (FIG. 4A). Tumor xenografts were initiated by subcutaneous inoculation of Bt474 parental and Bt474 Herceptin resistance cells in the lower back of SCID mice. Herceptin (15 mg/kg) and P005091 (10 mg/kg) were administered intraperitoneally once a week for the entire duration of the study. […] A HER2^+ patient derived xenograft model was tested by inoculation of tissues in the lower back of SCID mice (FIG. 4C). Drug treatment was same as described above. Data represent the mean±SD of 6 mice in each group.
# [2] = system: HER2+ patient derived xenograft; experiment: HER2+ patient derived xenograft model in SCID mice; format: in vivo; settings: Herceptin 15 mg/kg and P005091 10 mg/kg intraperitoneally once a week, FIG. 4C
# Protocol: as §1
# [3] = system: HER1 (EGFR); experiment: Western blot of ZR-75-1 cell lysates, HER1; format: cell-based; settings: ZR-75-1 cells, 10 μM P005091 for 12 hours; FIG. 5
# Protocol: (§2) Breast cancer cells ZR-75-1 were treated with either 1% DMSO or 10 μM P005091 for 12 hours. Cell lysates were subjected to western blot with indicated antibodies (FIG. 5).
# [4] = system: HER2; experiment: Western blot of ZR-75-1 cell lysates, HER2; format: cell-based; settings: ZR-75-1 cells, 10 μM P005091 for 12 hours; FIG. 5
# Protocol: as §2
# [5] = system: HER3; experiment: Western blot of ZR-75-1 cell lysates, HER3; format: cell-based; settings: ZR-75-1 cells, 10 μM P005091 for 12 hours; FIG. 5
# Protocol: as §2
# [6] = system: HER4; experiment: Western blot of ZR-75-1 cell lysates, HER4; format: cell-based; settings: ZR-75-1 cells, 10 μM P005091 for 12 hours; FIG. 5
# Protocol: as §2
compound,measurement,setting,value
"CC(=O)c1cc([N+](=O)[O-])c(Sc2cccc(Cl)c2Cl)s1 [P005091, 1-[5-(2,3-dichlorophenyl)sulfanyl-4-nitrothiophen-2-yl]ethanone]",sensitization effect in HER2 resistant breast cancer cell lines,[1]; HER2 resistant breast cancer cell lines,sensitization effect occurred
same,sensitization of HER2+ breast cancer cells to trastuzumab treatment (cell survival),"[1]; four different HER2+ breast cancer cells, 10 μM P005091 with Herceptin for 72 hours",sensitizes; also recorded: dramatically sensitized
same,sensitivity of PDX model to treatment,[2],dramatically sensitized
same,HER1 (EGFR) protein level by Western blot,[3],down regulated
same,HER2 protein level by Western blot,[4],down regulated
same,HER3 protein level by Western blot,[5],down regulated
same,HER4 protein level by Western blot,[6],down regulated
